Measurements taken from article PMC7162861, “Synthesis, cytotoxicity, pharmacokinetic profile, binding with DNA and BSA of new imidazo[1,2-a]pyrazine-benzo[d]imidazol-5-yl hybrids” (Scientific Reports, 2020).

Experiments:
CCRF-CEM = assay: NCI cytotoxicity screen, Leukemia panel; format: cell-based
Procedure: (§1) Cytotoxicity was performed at National Cancer Institute (NCI), Bethesda, USA as per their protocols.

HL-60(TB) = assay: NCI cytotoxicity screen, Leukemia panel; format: cell-based
Procedure: as §1

K-562 = assay: NCI cytotoxicity screen, Leukemia panel; format: cell-based
Procedure: as §1

MOLT-4 = assay: NCI cytotoxicity screen, Leukemia panel; format: cell-based; conditions: MOLT-4
Procedure: as §1

RPMI-8226 = assay: NCI cytotoxicity screen, Leukemia panel; format: cell-based; conditions: for GI50: RPMI-8226, RPMI-8226
Procedure: as §1

SR = assay: NCI cytotoxicity screen, Leukemia panel; format: cell-based
Procedure: as §1

A549/ATCC = assay: NCI cytotoxicity screen, Non-Small Cell Lung Cancer panel; format: cell-based
Procedure: as §1

EXVX = assay: as above; format: cell-based; conditions: Homo sapiens
Procedure: as §1

HOP-62 = assay: as above; format: cell-based
Procedure: as §1

HOP-92 = assay: as above; format: cell-based
Procedure: as §1

NCI-H460 = assay: as above; format: cell-based
Procedure: as §1

COLO 205 = assay: NCI cytotoxicity screen, Colon Cancer panel; format: cell-based
Procedure: as §1

HCT-116 = assay: NCI cytotoxicity screen, Colon Cancer panel; format: cell-based; conditions: Homo sapiens, five dose 0.01–100 µM
Procedure: as §1

HCT-15 = assay: NCI cytotoxicity screen, Colon Cancer panel; format: cell-based; conditions: Homo sapiens
Procedure: as §1

HT29 = assay: NCI cytotoxicity screen, Colon Cancer panel; format: cell-based
Procedure: as §1

HCC-2998 = assay: NCI cytotoxicity screen, Colon Cancer panel; format: cell-based, human
Procedure: as §1

KM12 = assay: NCI cytotoxicity screen, Colon Cancer panel; format: cell-based, human; conditions: five dose 0.01–100 µM
Procedure: as §1

SW-620 = assay: NCI cytotoxicity screen, Colon Cancer panel; format: cell-based, human; conditions: five dose 0.01–100 µM
Procedure: as §1

SF-268 = assay: NCI cytotoxicity screen, CNS Cancer panel; format: cell-based
Procedure: as §1

SF-295 = assay: NCI cytotoxicity screen, CNS Cancer panel; format: cell-based
Procedure: as §1

SF-539 = assay: NCI cytotoxicity screen, CNS Cancer panel; format: cell-based
Procedure: as §1

SNB-19 = assay: NCI cytotoxicity screen, CNS Cancer panel; format: cell-based; conditions: Homo sapiens
Procedure: as §1

[1] = Homo sapiens, five dose 0.01–100 µM, read-out: LC50 (the source's name)
[2] = Homo sapiens, read-out: Percent growth inhibition
[3] = Homo sapiens, five dose 0.01–100 µM

c1cn2cc(-c3ccc4ncn(C5CCCCC5)c4c3)nc(-c3ccc4c(c3)ncn4C3CCCCC3)c2n1 [Compound 31, 8-(1-cyclohexyl-1H-benzo[d]imidazol-5-yl)-6-(1-cyclohexyl-1H-benzo[d]imidazol-6-yl)imidazo[1,2-a]pyrazine]
GI50 (CCRF-CEM; Homo sapiens): 1.69 µM | CC50 (CCRF-CEM; [1]): > 1 µM | inhibition at 10 µM (CCRF-CEM; [2]): 95.7% | TGI (CCRF-CEM; five dose 0.01–100 µM): 6.08 µM | TGI (HL-60(TB); HL-60(TB), five dose 0.01–100 µM): 4.57 µM | GI50 (HL-60(TB); Homo sapiens, HL-60): 1.84 µM | CC50 (HL-60(TB); Homo sapiens, HL-60(TB), five dose 0.01–100 µM, read-out: LC50 (the source's name)): > 1 µM | GI50 (K-562; Homo sapiens, K562): 2.57 µM | CC50 (K-562; Homo sapiens, K562, K-562, five dose 0.01–100 µM, read-out: LC50 (the source's name)): > 1 µM | TGI (K-562; K-562, five dose 0.01–100 µM): >1.00 µM | GI50 (MOLT-4; Homo sapiens): 1.64 µM | CC50 (MOLT-4; [1]): > 1 µM | TGI (MOLT-4; five dose 0.01–100 µM): 5.22 µM | GI50 (RPMI-8226; Homo sapiens, five dose): 0.806 µM | GI50 (RPMI-8226; [3]): 0.8 µM | CC50 (RPMI-8226; Homo sapiens, RPMI-8226, five dose 0.01–100 µM, read-out: LC50 (the source's name)): > 1 µM | TGI (RPMI-8226; RPMI-8226, five dose 0.01–100 µM): 3.99 µM | GI50 (SR; Homo sapiens): 2.87 µM | CC50 (SR; [1]): > 1 µM | inhibition at 10 µM (SR; [2]): 97.5% | TGI (SR; five dose 0.01–100 µM): >1.00 µM | TGI (A549/ATCC; A549/ATCC, five dose 0.01–100 µM): 3.54 µM | GI50 (A549/ATCC; Homo sapiens, A549): 1.94 µM | CC50 (A549/ATCC; Homo sapiens, A549/ATCC, five dose 0.01–100 µM, read-out: LC50 (the source's name)): 6.46 µM | GI50 (EXVX): 1.97 µM | GI50 (HOP-62; Homo sapiens): 2 µM | CC50 (HOP-62; [1]): 6.9 µM | TGI (HOP-62; five dose 0.01–100 µM): 3.72 µM | GI50 (HOP-92; Homo sapiens): 1.54 µM | LC50 (HOP-92; [3]): 6.73 µM | TGI (HOP-92; five dose 0.01–100 µM): 3.22 µM | GI50 (NCI-H460; Homo sapiens): 1.98 µM | CC50 (NCI-H460; [1]): 8.16 µM | TGI (NCI-H460; five dose 0.01–100 µM): 4.02 µM | GI50 (COLO 205; Homo sapiens): 1.93 µM | LC50 (COLO 205; [3]): 7.44 µM | TGI (COLO 205; five dose 0.01–100 µM): 3.79 µM | GI50 (HCT-116): 1.7 µM | GI50 (HCT-15): 2.07 µM | TGI (HT29; HT29, five dose 0.01–100 µM): 5.20 µM | GI50 (HT29; Homo sapiens, HT-29): 2.44 µM | CC50 (HT29; Homo sapiens, HT-29, HT29, five dose 0.01–100 µM, read-out: LC50 (the source's name)): > 1 µM | TGI (HCC-2998; HCC-2998, five dose 0.01–100 µM): 3.46 µM | GI50 (HCC-2998; Homo sapiens, HCC 2998): 1.81 µM | GI50 (KM12; Homo sapiens): 2.01 µM | TGI (KM12): 3.83 µM | GI50 (SW-620; Homo sapiens): 2.08 µM | TGI (SW-620): 3.97 µM | GI50 (SF-268; Homo sapiens): 1.59 µM | CC50 (SF-268; [1]): 6.23 µM | TGI (SF-268; five dose 0.01–100 µM): 3.15 µM | GI50 (SF-295; Homo sapiens): 1.71 µM | CC50 (SF-295; [1]): 5.8 µM | TGI (SF-295; five dose 0.01–100 µM): 3.15 µM | GI50 (SF-539; Homo sapiens): 1.63 µM | LC50 (concentration killing 50% of cells) (SF-539; [3]): 6.1 µM | TGI (SF-539; five dose 0.01–100 µM): 3.15 µM | GI50 (SNB-19; SNB-19): 2.11 µM | inhibition at 10 µM (SNB-19; SNB-19, read-out: Percent growth inhibition): 93.4%
